Assay [1] deals with experienced and trained panelist. In words: Sensorial comparison of energy shot prototypes at various malic acid and sucralose levels with and without bioPDO (Example 5). Format: in vivo, human. To be noted: 0.2% bioPDO; sucralose and malic acid lowered by 32% and 47%. On the procedure:
• 1. Take 1st sip from a full 30 mL medicine cup, taste and swallow the 1st sample, wait 10 seconds, then take a 2nd sip and lock it into memory. Wait for 10 seconds. • 2. Proceed with 2nd sample. Taste 1st sip of the 2nd sample, wait for 10 seconds, and then use the 2nd sip to compare to the 2nd sip (or 3rd sip) of the 1st sample.
Each paired sample evaluation was repeated in triplicate with at least a 10-minute break and a carbon-treated water rinse.
The theory is to try to establish a reduced amount (concentration) of malic acid to match its sourness intensity of our energy shot prototype w/bioPDO to the control, energy shot prototype without bioPDO. Secondly, if this adjustment of lowering the malic acid concentration results in increasing sweetness, an additional step will be performed to reduce the amount of sucralose until both sourness and sweetness taste match that of the control w/o bioPDO. Below are the comparative sensorial evaluation results in Tables 33-36 including their specific sample formulations, observations, and results. Keywords of SUL, MA and CAF are sucralose, malic acid, and caffeine, respectively.

A short description of assay [2]: Comparison of energy shot prototypes with and without caffeine and bioPDO (Example 7). Format: in vivo, human. Conditions: samples without caffeine. On the procedure:
• 1. Take 1st sip from a full 30 mL medicine cup, taste and swallow the 1st sample, wait 10 seconds, then take a 2nd sip and lock it into memory. Wait for 10 seconds. • 2. Proceed with 2nd sample. Taste 1st sip of the 2nd sample, wait for 10 seconds, and then use the 2nd sip to compare to the 2nd sip of the 1st sample. • 3. Rinse with DW and wait for approximately 15 seconds. Repeat step 2 for each if extra sampling needed, not to exceed four samples at a time.
Each paired sample evaluation was repeated in duplicate with at least a 10-minute break and a carbon-treated water rinse.
The following samples were prepared for this study: • 1. Existing Sample #3A (Energy shot prototype) without bioPDO. • 2. Existing Sample #3B (Energy shot prototype) with bioPDO. • 3. New Sample #4A with similar levels of sucralose and malic acid as Sample #3A, BUT without bioPDO and caffeine as an experimental sample. • 4. New Sample #4B with similar levels of sucralose, malic acid and bioPDO as Sample #3B, BUT without caffeine as an experimental sample. Results
This study was designed so it would be possible to directly identify any other ‘off-taste’ attribute. […] Below are the comparative sensorial evaluation results in Table 42 including their specific sample formulations, observations and results. Keywords of SUL, MA and CAF are sucralose, malic acid and caffeine, respectively.

Assay [3] concerns descriptive panel of 8 panelists. In words: Descriptive analysis of 5HE, BANG and energy shot prototype drinks with and without bioPDO (Example 6). Format: in vivo, human. Conditions: addition of bioPDO (0.1%). On the procedure: A formal sensory testing called descriptive analysis (DA) was performed by 8 trained panelists in triplicate (n=24) on energy shot prototype, BANG prototype samples, and 5HE SHOT prototype samples with & without bioPDO. All samples were served to panelists at ambient temperature 20±2° C.
A qualified descriptive panel of 8 panelists, experienced in the sensory analysis of a range of products, was used for this research.
The protocol for descriptive analysis was divided into two distinct phases. 1) During the panel orientation phase, panelists tasted the samples and formulated a lexicon of descriptive taste, mouthfeel, aftertaste and after feel attributes to describe them. A final list of 3 taste, 3 mouthfeel, 3 aftertaste and 1 after feel attributes were determined (Table 37). During the sample testing phase, which took place over 2 separate days, the products were evaluated in triplicate (total evaluations n=24). […]
Following consumption of the 1st sip, panelists assessed the attribute ‘initial harshness mouthfeel’. The remaining attributes (including ‘harshness mouthfeel’) were then measured by panelists on the 2nd sip. Aftertaste/feel attributes were measured 30 seconds after ingestion of the 2nd sip. […]
The sensory attributes of the products were scored on unstructured 10 cm line scales labeled at both ends with extremes of each descriptive term. […]

A short description of assay [4]: Taste of juices and yogurts with 1,3-propanediol. Format: in vivo.

As to `OCCCO` [PDO, 1,3-propanediol], the “taste quality effect of 0.2% addition” value in assay [1] was “failed to further improve”. For the same compound, the “modulation of sweet and sour intensities” value in assay [2] was “does not positively or negatively modulate the sweet and sour intensities”. Besides, the “overall taste quality of energy shots/drink” value in assay [3] was “significantly improves overall taste quality”. Also, the taste modulation entry in assay [4] (Greek yogurt, with vs without) was “less bitter and sweeter”; in assay [4] (Vanilla yogurt, with vs without), “less bitter and somewhat sweeter”; in assay [4] (cranberry juice), “reduced both the bitterness and the sweetness”; in assay [4] (grapefruit juice), “decrease the bitterness and increase the sweetness”; in assay [4] (orange juice, with vs without), “less bitter and somewhat sweeter”.

The values are drawn from patent publication US12349708B2, “Use and methods of 1,3-propanediol to improve taste and/or off-taste qualities” (Primient Covation LLC, priority 2019, dated 2025).
